Measured values published in paper PMC4839297, “HTS-Driven Discovery of New Chemotypes with West Nile Virus Inhibitory Activity” (Molecules, 2010).
Where two headings read alike, the source gives them in different places.

Assays:
[1] = system: WNV (NY-99 strain) infection of Vero E6 cells; test: Single dose primary HTS, CPE based (CellTiter-Glo), 384-well; assay type: cell-based, West Nile virus
[2] = system: WNV progeny virus in Vero E6 cells; test: Titer reduction assay (TCID50 of progeny virus); assay type: cell-based, West Nile virus; parameters: SI50 *: unit not given beside the values; conditions: for SI50 *: Table 3, footnote to * not given; for EC50 / EC90 / inhibition at 15 µM: West Nile virus; for EC50 / EC90: Vero C1008, 48 h; for EC50: read-out: Dose response in Titer reduction EC50; for EC90: read-out: Dose response in Titer reduction EC90; for inhibition at 15 µM: Vero C1008, read-out: inhibition of progeny virus titer
Experimental: Finally, we employed a titer reduction assay to confirm the antiviral activity of the seven compounds confirmed in the assays. The titer of the progeny virus produced in the presence of the compounds was measured in TCID50 format. […] The titer reduction assay confirmed the antiviral activity of the hit compounds selected through our pathway (Figure 6).
Vero E6 cells were seeded in a 12-well plate in a volume of 1 mL and incubated overnight at 37 °C and 5% CO2. The next day media was aspirated from the cells and they were infected by adsorption of WNV (0.1 MOI) for one hour in 100 μL media. After aspirating the virus and washing the cells with phosphate buffered saline, media was replenished containing compounds at various concentrations. The plates were incubated for 48 h. Progeny virus titer was measured by TCID50 assay in 384-well plate format with 6 wells per dilution of virus. CellTiter-Glo® reagent was employed to determine a cell death which is a sign of infection. A well with a luminescence signal less than the mean of the non-infected control signal, minus 5 times the standard deviation of the control, was regarded as a positive infection. The TCID50 was calculated with the numbers of positive infection and negative infection by the Reed-Muench method.

[3] = system: WNV (NY-99 strain) infection of Vero E6 cells; test: Time of addition assay in dose response format; assay type: cell-based, West Nile virus; conditions: for EC50 change pattern (time of addition): Table 2; for EC50 change pattern over the course of infection: Table 3, compound added at -1, 4, 8, 18 h post-infection; for EC50: West Nile virus, Vero C1008, 18 h, read-out: EC50 in time of addition assay
Experimental: The compounds selected by the primary and dose response screening were re-supplied from the suppliers as a solid form except 4 compounds; SMR000394098, SMR000059052, SMR000027739 and SRI-4578, which were not available at that time (Table 1). Time of addition assays were conducted in a dose response format with the 20 compounds. Serially diluted compounds were added to Vero E6 cells at -1, 4, 8 and 18 h post-infection. Luminescent data was calculated (as above) to obtain EC50 values for each compound at each time point of addition.
The EC50 of MPA was within a range of 2.0~5.0 μM regardless of when it was added.
(§1) Cytotoxicity and antiviral efficacy were performed in a dose-response format in parallel. Compounds were serially diluted in complete media (MEM-E) with a 0.5% DMSO final concentration and adding 5 μL to cell plates, identical to the stacked plate method. A ten point, two-fold dilution series of compound concentrations ranging from 30 μM to 0.059 μM were used in the assay. Virus (0.04 MOI) or media was added for antiviral effect or cytotoxicity respectively. The plates were incubated 96 h in a 5% CO2 incubator at 37 °C. Cell viability was measured as stated above. The serially diluted compounds were also used for time of addition studies adding to the infected cells in 384-well plates at -1, 4, 8 and18 h post-infection with WNV (0.02 MOI). The plates were then developed as above 96 h after infection. The EC50 value was calculated for each time of addition point.

[4] = Cytotoxicity in dose-response format (CellTiter-Glo); assay type: cell-based; conditions: African green monkey, Vero E6 cells (uninfected)
Experimental: (§2) To confirm the activity and to test the cytotoxicity, the top 110 inhibitory compounds were evaluated in a dose response assay using the identical screen.
as §1, with “A ten point, two-fold dilution series of compound concentrations ranging from 30 μM to 0.059 μM were used in the assay.” left out
(§3) The Z′ value was employed to evaluate the assay’s robustness and was calculated from 1-(3×standard deviation of cell control (σc) + 3* standard deviation of the virus control (σv)/ [mean cell control signal (μc) minus mean virus control signal (μv)]). The signal/background (S/B) was calculated from the mean cell control signal (μc) divided by the mean virus control signal (μv). The signal/noise (S/N) was calculated from mean cell control signal (μc) minus mean virus control signal (μv) divided by the (standard deviation of the cell control signal (σc)^2 […] the standard deviation of the virus control signal (σv)^2)^1/2 [24]. The effective concentration at which the drug inhibited cell death at 50% in the presence of virus (EC50) and the cytotoxicity of the drug alone at 50% (CC50) were calculated using ActivityBase software (IDBS, Inc, Guildford, UK). CPE inhibition (%) and cell viability were calculated as described in elsewhere. The standard curve analysis function in SigmaPlot™ was used to calculate the inhibitory concentration (IC50 and IC50 values) for the protease and titer reduction assays.

WNV NS2b-NS3pro = biological target: T1, WNV NS2b-NS3pro (West Nile virus, UniProt Q9Q6P4); test: WNV NS2b-NS3pro FRET based enzymatic assay; assay type: biochemical
T1 construct: A recombinant NS3 protease expressed and purified from E.coli; purchased AnaSpec Inc (CA, USA); host or cells: E. coli
Excerpt: The results from the time of addition assay led us to examine the NS3 protease as a potential target of the hit compounds. NS3 protease is an important enzyme responsible for the maturation of viral proteins at early stage during the replication of virus in the host cells. We tested the compounds for an inhibitory activity on NS3 protease using a FRET based, in vitro, enzymatic assay.
A recombinant NS3 protease expressed and purified from E.coli with the cofactor NS2b (residues 49-96) and a fluorescence resonance energy transfer (FRET) based assay kit were purchased from AnaSpec Inc (CA, USA). We followed an assay protocol published on line at PubChem by University of Pittsburgh Molecular Library Screening Center (http://www.ncbi.nlm.nih.gov/, AID:577). The assay was performed in a 384-well format with 10 ng/well of NS2b-NS3pro enzyme.

[5] = system: WNV (NY-99 strain) infection of Vero E6 cells; test: Dose response assay in CPE based screen (antiviral efficacy); assay type: cell-based, West Nile virus
Experimental: as §2
After reviewing the data from the primary screen, 110 compounds were selected for a dose-response study. The same compound stocks (10 mM in 100% DMSO) were used to select 7 μL of the compounds into a low-volume, 384-well plate. The dose response plates were prepared using a “stacked-plate” format using a 1:2 dilution series for a total of ten concentrations. By using this format, each entire plate represents one of the ten concentrations in the dilution series. A 5 μL aliquot of each of the serial dilution plates was transferred to the assay plates along with an equal volume but separate transfer of controls. With the addition of 20 μL of cells and 5 μL of virus, the final test concentrations for the dose response screen were 30 μM, 15 μM, 7.5 μM, 3.75 μM, 1.875 μM, 0.9375 μM, 0.4688 μM, 0.2344 μM, 0.1172 μM, and 0.0586 μM all at […].
as §1, §3

[6] = Table 3, Vero E6, read-out: Dose response in CPE based CC50
[7] = Table 1, CPE based dose response, Vero E6, WNV 0.04 MOI, 96 h, read-out: EC50
[8] = Table 1, Vero E6 without virus, 96 h, read-out: CC50
[9] = West Nile virus, Vero C1008, 96 h, Table 1, CPE based dose response, Vero E6, WNV 0.04 MOI, 96 h
[10] = West Nile virus, Vero C1008, read-out: Dose response in CPE based EC50, Table 3, Vero E6, WNV

T1 sequence (Q9Q6P4 1506-1683 limits assumed, looked up): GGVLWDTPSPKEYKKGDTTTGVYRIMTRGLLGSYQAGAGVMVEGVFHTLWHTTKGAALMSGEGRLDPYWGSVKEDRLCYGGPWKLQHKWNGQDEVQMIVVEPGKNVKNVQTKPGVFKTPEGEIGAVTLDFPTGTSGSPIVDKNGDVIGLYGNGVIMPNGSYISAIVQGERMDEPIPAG
T1 sequence (Q9Q6P4 1423-1470 partner limits assumed, looked up): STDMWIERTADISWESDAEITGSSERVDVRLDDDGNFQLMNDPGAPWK

Row | Structure (SMILES) | inhibition at 5 µg/mL ([1]; West Nile virus, Vero C1008, read-out: inhibition on average in primary screen) [%] | protection ([1]; assay optimization, MOI 0.04, 384-well) [%] | SI50 * [2] | EC50 [2] [µM] | EC90 [2] [µM] | EC50 change pattern (time of addition) [3] | EC50 change pattern over the course of infection [3] | EC50 [3] [µM] | CC50 at 96 h [4, 6] [µM] | anti-NS2b-NS3pro activity (in words) (WNV NS2b-NS3pro) | SI50 (Selectivity Index 50, ratio of CC50 to EC50) ([5]; Table 1) | EC50 [5, 7] [µM] | CC50 at 96 h [4, 8] [µM] | EC50 [5, 9] [µM] | EC50 [5, 10] [µM] | Dose response in Titer reduction EC50 ([2]; Vero E6, WNV 0.1 MOI, 48 h post-infection) | inhibition at 15 µM [2] [%]
1 | COc1c(C)c2c(c(O)c1C/C=C(\C)CCC(=O)O)C(=O)OC2 [MPA, mycophenolic acid, reference compound] | 44.6 | 30 | >1000 | 0.03 | 0.94 | No Change : EC50_1hr ≈ EC50_4hr ≈ EC50_8hr ≈ EC50_18hr | no change | 2 to 5 | > 30 | – | – | – | – | – | – | – | –
2 | O=C(O)c1ccccc1Nc1ccccc1 [N-Phenylanthranilic acid, reference compound] | – | – | – | – | – | – | – | – | – | could not detect any significant activity | – | – | – | – | – | – | –
3 | Cc1oc(-c2ccccc2Cl)nc1CSCC(=O)N1CCCC1 [SMR000027739] | – | – | – | – | – | – | – | – | – | – | >3.4 | 29.6 | – | – | – | – | –
4 | CC(=O)OC[C@H]1O[C@@H](n2ncc(=O)[nH]c2=O)[C@H](OC(C)=O)[C@@H]1OC(C)=O [SMR000059052] | – | – | – | – | – | – | – | – | – | – | >5.0 | 20 | – | – | – | – | –
5 | O=C(O)c1ccccc1Nc1ccc([N+](=O)[O-])cc1 [SMR000171908] | – | – | >25 | 1.16 | 6.73 | Increase: EC50_1hr ≈ EC50_4hr ≤ EC50_8hr < EC50_18hr | Increase | – | > 30 | – | >3.3 | – | > 100 | 30.4 | 30.4 | – | –
6 | C[C@@H]1Cc2ccccc2N1S(=O)(=O)c1cccc(C(=O)N2CCN(c3ncccn3)CC2)c1 [SMR000370276] | – | – | >5 | – | 6.07 | Increase: EC50_1hr ≈ EC50_4hr ≤ EC50_8hr < EC50_18hr | Increase | – | > 30 | – | >5.3 | – | > 100 | 18.9 | 18.9 | No solution | 98.8
7 | CC(C)C[C@H](NC(=O)c1nc[nH]c1C(=O)N1CCN(C(=O)OC(C)(C)C)CC1)C(=O)OC(C)(C)C [SMR000394098] | – | – | – | – | – | – | – | – | – | – | >5.1 | 19.6 | – | – | – | – | –
8 | COc1cc(-c2ccc(Nc3ccccc3C(=O)O)c(OC)c2)ccc1Nc1ccccc1C(=O)O [SRI-19093, Redoxal] | – | – | >200 | 0.13 | 2.14 | – | Increase | 3.2 to 6.4 | > 30 | inhibited viral protease in vitro | >2.4 | – | > 100 | 41 | 41 | – | 93.7
9 | COc1cccc2c(=O)n3c(nc12)/C(=C/c1ccc2c(c1)OCO2)CC3 [SRI-22003] | – | – | >6 | 4.7 | 5.13 | Increase: EC50_1hr ≈ EC50_4hr ≤ EC50_8hr < EC50_18hr | Increase | – | > 30 | – | >8.2 | – | > 100 | 12.2 | 12.2 | – | 98.8
